In patent publication US20240238236A1, “COMPOSITION FOR REGULATING CARBOHYDRATE METABOLISM, AND METHOD FOR ASSESSING CARBOHYDRATE METABOLISM CONDITIONS OF SUBJECT” (KAGAMI INC., priority 2021, published 2024):

Experiments:
Type in all cases: in vivo
[1] = tested on: carbohydrate metabolism-modified mice (type 1 diabetes model); test: casual blood glucose measurement; conditions: for increase in casual blood glucose level: 20 mM in drinking water on D-amino acid-free diet, after STZ (2 weeks); for casual blood glucose level: vs water control
Description: (§3) After removing the left kidney of C57BL/6(B6) mice (−2 weeks: −2 w), a D-amino acid-eliminated diet (D-amino acid-free diet, D-fd) was provided, and groups administered aqueous solution of 20 mM D-alanine (n=5), 20 mM D-serine (n=5), 20 mM D-proline (n=5), 20 mM D-leucine (n=5) or water (n=6 to 14) in drinking water, and a group given normal diet and water as a control (n=5), were administered streptozotocin (STZ) at 50 mg/kg (0 weeks) to create carbohydrate metabolism-modified model mice, and blood insulin measurement (−1 weeks, 3 weeks), casual blood glucose measurement (−1 weeks, 2 weeks), fasting blood glucose measurement (−1 weeks, 3 weeks) and measurement of insulin and glucagon in pancreatic islets of Langerhans by antibody staining, were conducted as appropriate.

[2] = tested on: carbohydrate metabolism-modified mice (type 1 diabetes model); test: insulin tolerance testing (ITT); conditions: before and at 2 weeks after STZ, vs water control; for blood glucose level and insulin resistance in insulin tolerance testing (ITT): 20 mM in drinking water
Description: (§1) After removing the left kidney of C57BL/6(B6) mice (−2 weeks: −2 w), a group administered Risperidone aqueous solution as a DAO inhibitor in drinking water (n=3 to 7) and a group administered water as drinking water (n=9 to 11) as a control were administered streptozotocin (STZ) at 50 mg/kg (0) weeks) to create carbohydrate metabolism-modified model mice, and insulin tolerance testing (−1 weeks, 2 weeks), intra-peritoneal glucose tolerance testing (−1 weeks), casual blood glucose measurement (−1 weeks, 2 weeks, 6 weeks) and fasting blood glucose measurement (−1 weeks, 2 weeks) were conducted as appropriate.
(§2) After removing the left kidney of C57BL/6(B6) mice (−2 weeks: −2 w), a group administered an aqueous solution of 20 mM D-alanine (n=5 to 8), 80 mM D-alanine (n=3 to 4), 20 mM D-serine (n=6 to 7) or 80 mM D-serine (n=4) as drinking water, and a group administered water as drinking water as a control (n=8) were administered streptozotocin (STZ) at 50 mg/kg (0 weeks) to create carbohydrate metabolism-modified model mice, and insulin tolerance testing (−1 weeks, 2 weeks), casual blood glucose measurement (0 weeks to 18 weeks), fasting blood glucose measurement (0 weeks to 16 weeks) and systolic/diastolic blood pressure measurement (−1 weeks to 18 weeks) were conducted as appropriate.

[3] = tested on: carbohydrate metabolism-modified mice (type 1 diabetes model); test: fasting blood glucose measurement; conditions: vs water control
Description: as §3

[4] = tested on: carbohydrate metabolism-modified mice (type 1 diabetes model); test: intra-peritoneal glucose tolerance testing (IPGTT); conditions: Risperidone in drinking water; B6 mice, -1 weeks; vs water control
Description: as §1

[5] = tested on: carbohydrate metabolism-modified mice (type 1 diabetes model); test: death during D-amino acid administration in drinking water; conditions: 80 mM in drinking water (n=4); within 18 weeks
Description: as §2

[6] = tested on: carbohydrate metabolism-modified mice (type 1 diabetes model); test: systolic/diastolic blood pressure measurement; conditions: 80 mM in drinking water; 10 weeks after STZ; vs B6 group
Description: as §2

[7] = tested on: db/db mice (type 2 diabetes model); test: casual blood glucose in db/db mice; conditions: 20 mM in drinking water, 5 to 18 weeks, vs control group
[8] = 20 mM or 80 mM in drinking water, dose-dependent, after STZ (0 to 18 weeks)
[9] = 20 mM or 80 mM in drinking water, dose-dependent, after STZ (0 to 16 weeks)

SMILES	increase in casual blood glucose level [1]	casual blood glucose level ([1]; Risperidone in drinking water, after STZ (2, 6 weeks))	blood glucose level in insulin tolerance testing (ITT) ([2]; Risperidone aqueous solution in drinking water, left kidney removed, STZ 50 mg/kg B6 mice)	fasting blood glucose level ([3]; Risperidone in drinking water, after STZ (2 weeks))	blood glucose level in intra-peritoneal glucose tolerance testing (IPGTT) [4]	death of animals (toxicity) [5]	casual blood glucose level [1, 8]	blood glucose level and insulin resistance in insulin tolerance testing (ITT) [2]	fasting blood glucose level [3, 9]	diastolic pressure [6]	systolic pressure [6]	casual blood glucose level [7]
CC(C)C[C@@H](N)C(=O)O [D-leucine]	suppressed											
Cc1nc2n(c(=O)c1CCN1CCC(c3noc4cc(F)ccc34)CC1)CCCC2 [Risperidone, reference compound]		remained at low levels in the Risperidone group compared to the control group	lower blood glucose levels compared to the control group	remained at low levels in the Risperidone group compared to the control	lower values for blood glucose level than the control group							
N[C@H](CO)C(=O)O [D-serine]	suppressed					one individual died within 18 weeks	remained at a low levels	lower blood glucose levels and lower insulin resistance compared to the control group	remained at a low levels			
C[C@@H](N)C(=O)O [D-alanine]	suppressed						remained at a low levels	lower blood glucose levels and lower insulin resistance compared to the control group	remained at a low levels	lowered	lowered	lower levels
